We go through three compounds from patent publication US20240173296A1, “PHARMACEUTICAL COMPOSITION OF (S)-KETOROLAC AND PREPARATION METHOD THEREFOR” (NANJING HERON PHARMACEUTICAL SCIENCE AND TECHNOLOGY CO., …, priority 2021, published 2024).

Converted amounts (≈) assume the structure as drawn. Like-named read-outs stand apart in the source and are kept apart here.

Series [1] in a line: Pharmacokinetic testing after single intravenous administration in beagle dogs. Format: in vivo. The settings on record: for AUC(0-inf) / AUC(0-t) / half-life / MRT last / clearance / Vd: dog, mean ± standard deviation; for AUC(0-inf) / AUC(0-t) / half-life / MRT last: plasma analyte = label; for MRT last: read-out: MRT0-t; for clearance / Vd: plasma; for Vd: read-out: Vss. On the procedure:
(§1) Representative batches of lyophilized powder injection of (S)-ketorolac described in the present application were selected to examine the drug metabolism in vivo of beagle dogs and cynomolgus monkeys. The mode of administration was single intravenous administration. The concentration of (S)-ketorolac and (R)-ketorolac in plasma samples was measured by LC-MS/MS, and the blood drug concentration-time curve was plotted to obtain the main pharmacokinetic parameters and examine the chiral transformation of (S)-ketorolac and (R)-ketorolac in animals.

The nature of the next series: in vivo. The following applies: cynomolgus monkey, iv. On the procedure:
as §1

Series [2] can be described thus: Solubility of (S)-ketorolac in solvents. Format: physicochemical.
Series [3] can be described thus: Optical stability of (S)-ketorolac in phosphate buffer solutions with different pH values (Test Example 2). Format: physicochemical. Here is the method: (§2) Phosphate buffer solutions with a pH range of 6.5 to 7.8 were prepared with reference to Chinese Pharmacopoeia (2020 edition). The appropriate amount of (S)-ketorolac (free acid) was added to each phosphate buffer to prepare mixtures of about 20 mg/ml. Each solution was placed in an air bath shaker and shaken at 25° C. for 24 hours, during which the dissolution of (S)-ketorolac in each mixture was observed. The remaining samples were reserved at 25° C. and 40° C., and the formation of isomers was detected after 2 days and 30 days, as shown in Table 2.

Series [4] can be described thus: Solubility of (S)-ketorolac in phosphate buffer solutions with different pH (Test Example 2). The settings on record: 25 °C, aqueous buffer, thermodynamic from solid, read-out: Saturation solubility at 25° C. In kind it is physicochemical. Here is the method: as §2
The conditions of series [5]: standard animal model of analgesic activity; cited from earlier work.
The mark [6] stands for this setting: single intravenous (S)-ketorolac 0.16 mg/kg.
Setting [7] is: single intravenous (S)-ketorolac 3.2 mg/kg.

One may read the AUC(0-inf) as total exposure, with the tail of the curve extrapolated. As usually defined, the AUC(0-t) is the area under the concentration-time curve up to a stated or last time point. The term half-life denotes the time needed for the level to fall by half in the phase considered. With `O=C(c1ccccc1)c1ccc2n1CC[C@H]2C(=O)O` [(R)-ketorolac], in series [1] (setting [6]), the AUC(0-inf) is 79.2 ± 57 ng·h/mL, the AUC(0-t) is 11.7 ± 1.21 ng·h/mL, the half-life is 22.7 ± 16.8 h and the MRT last turned out to be 3.07 ± 0.144 h. Further, the “Chiral transformation rate = (AUC0-t)R/[(AUC0-t)S + (AUC0-t)R] × 100” value in series [1] (setting [6]) was 2.10%. Further, in series [1] (setting [7]), the AUC(0-t) stood at 724 ± 259 ng·h/mL, the MRT last came to 3.52 ± 0.33 h and the “Chiral transformation rate = (AUC0-t)R/[(AUC0-t)S + (AUC0-t)R] × 100” value is 1.71%.

One may read the clearance as a measure of how efficiently the substance is removed, as volume per time. A low value points to inefficient removal. Take `O=C(c1ccccc1)c1ccc2n1CC[C@@H]2C(=O)O` [(S)-ketorolac]: the Vd in the series “in vivo” (0.24 mg/kg) was determined as 0.224 ± 0.0778 L/kg; in “in vivo” (2.4 mg/kg), 0.18 ± 0.0381 L/kg; in series [1] (setting [6]), 1.29 ± 0.432 L/kg; in series [1] (setting [7]), 0.391 L/kg. Besides, the clearance in “in vivo” (0.24 mg/kg) was 1.77 mL/min/kg; in the series “in vivo” (2.4 mg/kg), 1.7 mL/min/kg; in series [1] (setting [6]), 3.22 mL/min/kg; in series [1] (setting [7]), 0.472 mL/min/kg. Moreover, the “solubility in anhydrous ethanol” value in series [2] (anhydrous ethanol) is “sparingly soluble”. Also, in series [2] (dichloromethane), the solubility in dichloromethane entry is listed as “slightly soluble”. The solubility in dimethylformamide result in series [2] (dimethylformamide) is recorded as “freely soluble”. In addition, the solubility in methanol entry in series [2] (methanol) was “soluble”. In addition, the solubility in water result in series [2] (water) is “nearly or completely insoluble”. In addition, the Isomer purity determined in series [3] (phosphate buffer pH 6.5, 25° C., Day 2) was 0.20%; in series [3] (phosphate buffer pH 6.5, 25° C., Day 30), 3.43%; in series [3] (phosphate buffer pH 6.5, 40° C., Day 30), 27.90%; in series [3] (phosphate buffer pH 6.8, 25° C., Day 2), 0.21%; in series [3] (phosphate buffer pH 6.8, 25° C., Day 30) it was 3.22%; in series [3] (phosphate buffer pH 6.8, 40° C., Day 30), 28.14%. Besides, the Isomer purity determined stood at 0.22% in series [3] (phosphate buffer pH 7.0, 25° C., Day 2); 3.20% in series [3] (phosphate buffer pH 7.0, 25° C., Day 30); 27.11% in series [3] (phosphate buffer pH 7.0, 40° C., Day 30); 0.22% in series [3] (phosphate buffer pH 7.2, 25° C., Day 2); 3.34% in series [3] (phosphate buffer pH 7.2, 25° C., Day 30); 27.71% in series [3] (phosphate buffer pH 7.2, 40° C., Day 30). The Isomer purity determined in series [3] (phosphate buffer pH 7.4, 25° C., Day 2) is listed as 0.21%; in series [3] (phosphate buffer pH 7.4, 25° C., Day 30) it was 3.31%; in series [3] (phosphate buffer pH 7.4, 40° C., Day 30), 23.91%; in series [3] (phosphate buffer pH 7.6, 25° C., Day 2), 0.22%; in series [3] (phosphate buffer pH 7.6, 25° C., Day 30), 3.43%; in series [3] (phosphate buffer pH 7.6, 40° C., Day 30), 24.35%. Besides, the Isomer purity determined in series [3] (phosphate buffer pH 7.8, 25° C., Day 2) is reported as 0.51%; in series [3] (phosphate buffer pH 7.8, 25° C., Day 30), 4.92%; in series [3] (phosphate buffer pH 7.8, 40° C., Day 30), 21.28%. In addition, in series [3] (samples in the solution state (phosphate buffer), stored at 25° C. for one month), the “optical purity of (S)-ketorolac” value is “greater than or equal to 95%”. Besides, the solubility at 24 h turned out to be 1860 µg/mL (≈ 7.29 mM) in series [4] (phosphate buffer solution pH 6.5); 3030 µg/mL (≈ 11.9 mM) in series [4] (phosphate buffer solution pH 6.8); 4090 µg/mL (≈ 16 mM) in series [4] (phosphate buffer solution pH 7.0); 4520 µg/mL (≈ 17.7 mM) in series [4] (phosphate buffer solution pH 7.2); 4720 µg/mL (≈ 18.5 mM) in series [4] (phosphate buffer solution pH 7.4); 5220 µg/mL (≈ 20.4 mM) in series [4] (phosphate buffer solution pH 7.6). Moreover, the solubility at 24 h in series [4] (phosphate buffer solution pH 7.8) is at least 24200 µg/mL. The AUC(0-inf) in series [1] (setting [6]) was 950 ± 385 ng·h/mL; in series [1] (setting [7]), 117000 ± 25900 ng·h/mL. The exposure AUC(0-t) in series [1] (setting [6]) was determined as 545 ± 147 ng·h/mL; in series [1] (setting [7]), 41600 ± 3540 ng·h/mL. The half-life in series [1] (setting [6]) was 7.13 ± 2.93 h; in series [1] (setting [7]), 10.3 ± 2.18 h. Also, the MRT last was 1.61 ± 0.4 h in series [1] (setting [6]) and 2.5 ± 0.149 h in series [1] (setting [7]).

In the case of `O=C(c1ccccc1)c1ccc2n1CCC2C(=O)O` (racemic) [ketorolac tromethamine], the “analgesic activity relative to that of Aspirin” value in series [5] is 800 times.
